One test concerns the target T1, NLuc-hH2R (Homo sapiens, UniProt P25021).
T1 construct: membrane signal peptide of the murine 5HT3A receptor (N); expressed in transfected cells
Kind of test: Real-time NanoBRET kinetic binding experiments. How it is done:
The cell line stably expressing the NLuc-hH2R construct was detached from the cell culture dishes after reaching ~ 80% confluency by treatment with trypsin/EDTA (0.05%/0.2%, for 2 min at 37 °C) and was centrifuged (600×g, 5 min). The cell pellet was then resuspended in Leibovitz’ L-15 medium (L-15), supplemented with 5% FCS + 10 mM HEPES, and 1.0 × 10^5 cells/well were seeded in 70 µL (saturation and competition binding) or 80 µL (kinetic experiments) of assay medium into white 96-well cell-Grade™ plates (Brand GmbH & Co. KG, Wertheim, Germany). The cells were then incubated at 37 °C in a humidified atmosphere (no additional CO2) overnight. For saturation binding experiments, serial dilutions (tenfold concentrated) of the fluorescent ligands (8–10) and famotidine (4, 300-fold excess over the respective concentration of fluorescent ligand, non-specific binding) were prepared in dilution buffer (L-15 + 2% BSA + 10 mM HEPES). 10 µL of the fluorescent ligand dilution and 10 µL of L-15 (total binding) or the dilution of 4 (non-specific binding) were added to the cells. After 60 min incubation time at 27 °C, 10 µL of the substrate furimazine, which was diluted according to manufacturer’s protocol beforehand, were added. After 5 min of equilibration time at 27 °C, the measurement was started. Competition binding experiments were performed as described above using one fixed concentration of fluorescent ligand 8 (c = 50 nM) and varying concentrations of the competitors 1–4, 11, 12, that were added at the same time. Kinetic measurements were performed as follows: 10 µL of L-15 (for total binding) or 4 (300-fold excess, c = 15 µM, non-specific binding) were added to the cells. After addition of the diluted substrate, the plate was placed inside the reader for 5 min to equilibrate. To start association 50 µL of a threefold concentrated solution of the fluorescent ligand 8 (cfinal = 50 nM) were added to the adherent cells and the plate was measured for 60 min. Dissociation experiments were conducted in wells, which have been preincubated with 8 as described above for association experiments. To initiate dissociation, 50 µL of a fourfold concentrated solution of 4 (300-fold excess, cfinal = 15 µM) were added to the cells and the measurement was performed for 4 h. All measurements were performed on a TECAN InfiniteLumi plate reader (TECAN, Grödig, Austria) at 27 °C using the Blue2 NB (460 nm ± 35 nm, bandpass) and the Red NB (> 610 nm, longpass) filter combination with an integration time of 100 ms. For the kinetic experiments, integration time was increased to 500 ms for both channels to reduce noise. BRET ratios were calculated by dividing the acceptor emission (red NB) by the donor luminescence (Blue2 NB).
For kinetic experiments, association experiments were fitted with the “one-phase association” fit yielding kobs, whereas the dissociation experiments were fitted assuming a “one-phase decay” model resulting in koff. The association rate constant kon was calculated using the following equation: kon = (kobs − koff)/c(ligand); c(ligand) = 50 nM. Dissociation half-life t1/2 was calculated applying the following formula: t1/2 = ln(2)/koff.The kinetic equilibrium dissociation constant Kd(kin) was calculated as follows: Kd(kin) = koff/kon. The errors for kon, t1/2 and Kd(kin) were calculated according to the Gaussian law of error propagation. All experimental data were analyzed using Prism 8 software (GraphPad, San Diego, CA, USA).
A general note: In BRET a luciferase serves as donor, and the signal depends on an acceptor being close.

The next test deals with T2, hH2R-Gsαs fusion protein (Homo sapiens, UniProt P25021).
T2 construct: made in house; host or cells: Sf9 insect cells (recombinant baculovirus), membrane preparation
Kind of test: Radioligand competition binding with [3H]UR-DE257 on Sf9 membranes. The conditions noted are these: read-out: pKi (RL comp. binding Sf9 membranes) (converted). How it is done:
All data analysis was performed using Prism 5.0c (GraphPad, San Diego, CA, USA).
(In general: In a radioligand displacement assay an active substance lowers the binding of a labelled ligand.)

1 compound from paper PMC7414126 (Scientific Reports, 2020) can be followed below.

The structures appear in SMILES notation. Several values for one entry are separate records, joined by “and”; a condition that tells them apart may be missing. Equal entries are not always repeated.

T1 sequence (P25021 whole entry): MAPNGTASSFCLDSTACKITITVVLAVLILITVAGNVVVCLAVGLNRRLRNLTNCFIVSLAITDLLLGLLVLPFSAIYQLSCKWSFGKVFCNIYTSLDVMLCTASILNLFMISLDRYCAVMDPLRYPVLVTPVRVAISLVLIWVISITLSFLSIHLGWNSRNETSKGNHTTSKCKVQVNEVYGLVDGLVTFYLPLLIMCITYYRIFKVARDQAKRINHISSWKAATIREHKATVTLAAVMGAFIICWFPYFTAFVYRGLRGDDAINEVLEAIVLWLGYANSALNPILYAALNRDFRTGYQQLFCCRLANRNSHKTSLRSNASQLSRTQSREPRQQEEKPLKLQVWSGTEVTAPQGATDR
T2 sequence (P25021+P63092 fused): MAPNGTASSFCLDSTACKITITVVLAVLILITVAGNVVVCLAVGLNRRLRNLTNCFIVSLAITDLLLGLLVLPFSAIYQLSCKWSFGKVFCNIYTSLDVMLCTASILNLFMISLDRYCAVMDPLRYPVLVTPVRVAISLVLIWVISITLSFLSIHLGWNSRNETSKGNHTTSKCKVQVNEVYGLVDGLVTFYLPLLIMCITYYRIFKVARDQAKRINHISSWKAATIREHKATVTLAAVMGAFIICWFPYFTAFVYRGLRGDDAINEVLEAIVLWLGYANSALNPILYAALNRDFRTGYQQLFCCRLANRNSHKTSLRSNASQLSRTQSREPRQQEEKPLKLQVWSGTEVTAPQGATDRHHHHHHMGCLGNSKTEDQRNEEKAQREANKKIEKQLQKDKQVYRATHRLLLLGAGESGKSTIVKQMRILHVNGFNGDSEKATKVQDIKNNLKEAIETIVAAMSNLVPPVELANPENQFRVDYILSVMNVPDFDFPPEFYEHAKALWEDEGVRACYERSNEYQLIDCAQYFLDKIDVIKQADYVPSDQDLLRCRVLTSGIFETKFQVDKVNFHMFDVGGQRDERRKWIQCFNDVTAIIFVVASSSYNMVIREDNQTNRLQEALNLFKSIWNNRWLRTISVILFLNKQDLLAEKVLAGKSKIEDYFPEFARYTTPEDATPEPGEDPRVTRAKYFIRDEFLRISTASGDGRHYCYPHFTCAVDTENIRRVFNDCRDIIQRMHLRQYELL

Consider `Cc1cc(/C=C/c2cc3c4c(c2)CCCN4CCC3)cc(C)[n+]1CCCCNc1c(NCCCOc2cccc(CN3CCCCC3)c2)c(=O)c1=O` [Compound 8, (E)-1-(4-((3,4-Dioxo-2-((3-(3-(piperidin-1-ylmethyl)phenoxy)propyl)amino)cyclobut-1-en-1-yl)amino)butyl)-2,6-dimethyl-4-(2-(2,3,6,7-tetrahydro-1H,5H-pyrido[3,2,1-ij]quinolin-9-yl)vinyl)pyridin-1-ium], for which, on NLuc-hH2R (50 nM of 8), the “Time to full association (fully bound to the receptor)” value is “approximately 30 min”. Also, the “Amount of ligand displaced within 240 min” value on NLuc-hH2R (300-fold excess famotidine (15 µM), after 60 min preincubation with 50 nM 8) is listed as 35–40%. Besides, the Kd (in general, the free concentration of one partner at which half of the binding sites on the other are occupied at equilibrium, for simple one-to-one binding) at NLuc-hH2R (Kd(kin) = koff/kon) came to 1.3 ± 0.16 nM. Moreover, the kobs at NLuc-hH2R (association of 8, c = 50 nM, mean ± SEM, four experiments) worked out at 0.093 ± 0.009 min⁻¹. Also, on NLuc-hH2R (dissociation started with famotidine 15 µM after 60 min preincubation with 50 nM 8), the koff (commonly the first-order rate constant of dissociation) was 3.83e-05 s⁻¹. In addition, the kon (usually the second-order rate constant of association) at NLuc-hH2R (kon = (kobs − koff)/c(ligand), c = 50 nM, read-out: kon (association rate constant) (converted)) is 30000 M⁻¹ s⁻¹. Also, the “Dissociation half-life t1/2” value on NLuc-hH2R (t1/2 = ln(2)/koff) is 5 h and 5.007 ± 0.3317 h. Further, on hH2R-Gsαs fusion protein, the Ki is 24 nM.
